Results on two compounds are retold here after patent US11466010B2, “Toll-like receptor 8 (TLR8) specific antagonists and methods of making and uses thereof” (The Regents of the University of Colorado, a body corporate, priority 2017, dated 2022).

In one test the target is T1, TLR7 (Homo sapiens, UniProt Q9NYK1).
T1 construct: host or cells: HEK-Blue TLR7 cells
T1 sequence (Q9NYK1 27-1049): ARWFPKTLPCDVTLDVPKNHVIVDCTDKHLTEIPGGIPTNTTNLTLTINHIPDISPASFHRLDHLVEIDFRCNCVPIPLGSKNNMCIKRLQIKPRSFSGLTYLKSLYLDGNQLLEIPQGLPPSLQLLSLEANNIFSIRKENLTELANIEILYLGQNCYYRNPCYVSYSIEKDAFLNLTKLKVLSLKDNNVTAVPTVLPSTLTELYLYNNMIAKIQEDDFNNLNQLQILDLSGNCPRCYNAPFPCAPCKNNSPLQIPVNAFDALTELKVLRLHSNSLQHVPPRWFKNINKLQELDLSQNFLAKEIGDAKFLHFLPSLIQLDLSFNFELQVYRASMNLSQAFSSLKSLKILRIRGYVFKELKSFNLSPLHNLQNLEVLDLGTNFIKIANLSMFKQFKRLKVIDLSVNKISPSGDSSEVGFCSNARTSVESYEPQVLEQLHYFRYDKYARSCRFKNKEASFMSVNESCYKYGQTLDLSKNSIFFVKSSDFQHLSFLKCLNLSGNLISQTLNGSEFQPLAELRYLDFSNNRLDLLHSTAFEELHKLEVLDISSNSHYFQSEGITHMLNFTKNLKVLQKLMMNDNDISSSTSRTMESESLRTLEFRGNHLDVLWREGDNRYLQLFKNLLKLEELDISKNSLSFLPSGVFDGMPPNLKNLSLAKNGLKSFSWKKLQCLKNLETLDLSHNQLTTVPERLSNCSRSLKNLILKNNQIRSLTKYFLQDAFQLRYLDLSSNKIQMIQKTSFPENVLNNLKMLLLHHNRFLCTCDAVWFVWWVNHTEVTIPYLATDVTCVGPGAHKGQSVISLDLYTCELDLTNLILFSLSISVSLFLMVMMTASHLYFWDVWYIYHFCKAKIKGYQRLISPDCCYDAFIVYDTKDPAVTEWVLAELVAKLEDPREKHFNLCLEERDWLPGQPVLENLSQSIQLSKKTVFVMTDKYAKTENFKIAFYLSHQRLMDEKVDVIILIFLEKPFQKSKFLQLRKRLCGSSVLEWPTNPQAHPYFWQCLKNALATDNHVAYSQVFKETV
Put plainly: SEAP assay in HEK-Blue TLR7 cells activated by R848. To be noted: below approx. micromolar concentration. The class given is cell-based. As to the method: TLR selectivity assay: The selectivity of sample compound was tested using SEAP reporter assay in HEK-Blue overexpressing various TLRs. Plates were set up in same manner as described in SEAP assay above.

A further test has as its target T2, human TLR8 transgene (Homo sapiens, UniProt Q9NR97).
T2 construct: expressed in transfected cells; host or cells: primary splenocytes from hTLR8tg/TLR7-KO mice
T2 sequence (Q9NR97 27-1041): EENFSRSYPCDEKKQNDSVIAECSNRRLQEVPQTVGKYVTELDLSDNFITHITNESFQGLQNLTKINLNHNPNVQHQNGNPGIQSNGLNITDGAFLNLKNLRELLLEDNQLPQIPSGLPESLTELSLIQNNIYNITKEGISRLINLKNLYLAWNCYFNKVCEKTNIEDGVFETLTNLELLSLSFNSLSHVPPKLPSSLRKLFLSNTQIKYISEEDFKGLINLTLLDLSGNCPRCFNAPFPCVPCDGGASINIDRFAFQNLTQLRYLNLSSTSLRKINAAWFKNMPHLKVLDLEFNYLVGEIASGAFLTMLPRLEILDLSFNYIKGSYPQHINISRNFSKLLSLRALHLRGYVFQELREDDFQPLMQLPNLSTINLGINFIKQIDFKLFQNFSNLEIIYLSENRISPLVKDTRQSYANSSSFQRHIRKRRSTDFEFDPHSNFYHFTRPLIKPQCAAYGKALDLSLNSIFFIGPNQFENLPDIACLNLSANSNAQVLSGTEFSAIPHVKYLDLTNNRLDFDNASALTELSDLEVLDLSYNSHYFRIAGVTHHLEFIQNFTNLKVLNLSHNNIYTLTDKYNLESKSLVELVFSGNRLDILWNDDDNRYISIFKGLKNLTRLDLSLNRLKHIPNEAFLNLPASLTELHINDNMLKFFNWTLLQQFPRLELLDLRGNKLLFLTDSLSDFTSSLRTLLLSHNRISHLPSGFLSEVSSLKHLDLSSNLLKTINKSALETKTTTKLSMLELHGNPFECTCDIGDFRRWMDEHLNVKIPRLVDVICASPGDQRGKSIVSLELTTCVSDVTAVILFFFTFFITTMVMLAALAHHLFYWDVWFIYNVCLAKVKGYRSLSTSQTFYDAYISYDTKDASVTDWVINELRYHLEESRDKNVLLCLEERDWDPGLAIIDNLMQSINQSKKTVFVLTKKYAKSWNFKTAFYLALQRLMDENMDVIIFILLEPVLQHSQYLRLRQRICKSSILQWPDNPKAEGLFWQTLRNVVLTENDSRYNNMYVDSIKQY
Put plainly: IL-12p40 production in splenocytes from hTLR8tg/TLR7-KO mice, TLR8 agonist ORN8L. To be noted: ORN8L 100 ug/mL, 48 hours. Format: cell-based, mouse. As to the method:
Activity on primary mouse splenocytes: To assess TLR8 and TLR9 activity, spleens were isolated from TLR7 knock-out mice harboring a human TLR8 transgene (hTLR8tg/TLR7-KO). Splenocytes were prepared by dissociation through a cell strainer and removal of red blood cells with lysis buffer. Splenocytes were incubated with a dilution series of compounds and a constant amount of a TLR8 agonist (RNA oligonucleotide ORN8L) or a TLR9 agonist (CpG-containing phosphorothioate DNA oligonucleotide 1018). After 48 hours, culture supernatants were collected and analyzed for IL-12p40 production. Curves represent activity from a single spleen.

Consider `Cc1cc(-c2ccnc3cc(O)ccc23)ccc1O` [Compound 11b, 2-Methyl-4-(7-hydroxyl-4-quinolinyl)-phenol], for which the “effect on TLR7” value on TLR7 is listed as “not affected”. For the same compound, the “IL-12p40 production as a monitor of TLR8 signaling” value on human TLR8 transgene is “inhibition”.

In the case of `COc1ccc2c(-c3ccc(O)c(C)c3)ccnc2c1` [Compound 11a, 2-Methyl-4-(7-methoxyl-4-quinolinyl)-phenol], the “effect on TLR7” value at TLR7 was “not affected”. Also, the “IL-12p40 production as a monitor of TLR8 signaling” value at human TLR8 transgene is listed as “inhibition”.
